{"source": "patent US6306860A", "about": "“2,5-pyridinedicarboxylic acid derivatives” (Dong Wha Pharm. Inc. Co., Ltd., priority 1998, dated 2001)", "key": {"[1]": {"system": "HBV", "settings": "results of some studies; cited from earlier work"}, "[2]": {"target": "T1, HBV polymerase (Hepatitis B virus genotype D subtype ayw, UniProt P03156)", "T1 construct": "made in house; host or cells: E. coli", "T1 sequence (P03156 whole entry)": "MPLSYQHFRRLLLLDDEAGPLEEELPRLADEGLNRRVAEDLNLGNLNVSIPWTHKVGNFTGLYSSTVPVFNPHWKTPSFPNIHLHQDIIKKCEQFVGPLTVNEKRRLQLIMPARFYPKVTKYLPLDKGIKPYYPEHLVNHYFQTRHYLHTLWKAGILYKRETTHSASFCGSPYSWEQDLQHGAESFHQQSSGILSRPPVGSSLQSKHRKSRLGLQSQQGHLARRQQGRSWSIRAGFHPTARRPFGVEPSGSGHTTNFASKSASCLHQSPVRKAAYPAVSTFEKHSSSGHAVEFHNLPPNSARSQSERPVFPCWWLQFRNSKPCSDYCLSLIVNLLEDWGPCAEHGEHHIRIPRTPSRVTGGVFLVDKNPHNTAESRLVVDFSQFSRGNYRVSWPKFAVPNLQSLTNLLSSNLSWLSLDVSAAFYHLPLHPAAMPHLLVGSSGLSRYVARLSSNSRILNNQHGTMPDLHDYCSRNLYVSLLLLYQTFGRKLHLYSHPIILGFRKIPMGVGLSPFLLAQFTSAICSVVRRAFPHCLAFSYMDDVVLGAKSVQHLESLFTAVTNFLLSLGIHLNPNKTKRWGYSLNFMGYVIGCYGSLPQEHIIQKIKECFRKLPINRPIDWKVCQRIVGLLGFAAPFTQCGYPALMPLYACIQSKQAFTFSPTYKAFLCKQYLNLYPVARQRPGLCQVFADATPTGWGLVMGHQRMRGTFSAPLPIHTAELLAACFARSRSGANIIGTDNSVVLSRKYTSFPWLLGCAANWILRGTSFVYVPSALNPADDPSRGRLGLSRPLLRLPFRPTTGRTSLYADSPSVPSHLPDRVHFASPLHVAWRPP", "assay": "Inhibitory activities against HBV polymerase (reverse transcriptase activity) in vitro", "format": "biochemical", "settings": "read-out: Inhibitory activity of HBV-RT (%); for inhibition at 0.01 µg/mL: 0.01 μg/ml; for inhibition at 0.1 µg/mL: 0.1 μg/ml; for inhibition at 1 µg/mL: 1 μg/ml", "how_it_was_run": "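Recombinant HBV polymerase expressed in E. coli was incubated with reaction mixture and test compound for 18~24 hours at 14° C.~30° C. Reverse transcriptase product, labelled with biotin- and DIG-modified nucleotide, detected ELISA-style with peroxidase anti-DIG antibody; inhibition judged relative to controls without compound.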"}, "[3]": {"target": "T2, HIV reverse transcriptase (Human immunodeficiency virus type 1 group M subtype B, UniProt P04585)", "T2 construct": "purchased Boehringer Mannheim", "assay": "In vitro inhibition test against HIV reverse transcriptase", "format": "biochemical", "settings": "read-out: Inhibitory activity of HIV-RT (%); for inhibition at 0.1 µg/mL: 0.1 μg/ml; for inhibition at 1 µg/mL: 1 μg/ml", "how_it_was_run": "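Non-radioactive colorimetric kit assay: 40 ng HIV-RT with poly(A)/oligo(dT)15 template/primer plus DIG-dUTP, biotin-dUTP and TTP, incubated with compound 1 h at 37 °C. Product captured on streptavidin, detected with anti-DIG-POD and ABTS; A405 read, with activity compared to a no-compound control.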"}}, "note": "Counter-ions that a name gives are not always drawn.", "data": [{"molecule": "CC(=O)OCC(CCn1cnc2cnc(N)nc21)COC(C)=O", "note": "[Famvir]", "values": [{"measurement": "suppressing the proliferation of HBV", "setting": "[1]", "result": "effective in suppressing the proliferation of HBV"}]}, {"molecule": "CC(C)Nc1cccnc1N1CCN(C(=O)c2ccc(C(=O)NCCOCCO)cn2)CC1", "note": "[Exam. 48, 5-[N-[2-(2-hydroxyethoxy)ethyl]carbamoyl]-2-[1-[3-(isopropylamino)-2-pyridyl]piperazin-4-yl-carbonyl]pyridine]", "values": [{"measurement": "inhibition at 0.01 µg/mL", "setting": "[2]", "result": 52, "unit": "%"}, {"measurement": "inhibition at 0.1 µg/mL", "setting": "[2]", "result": 66, "unit": "%"}, {"measurement": "inhibition at 1 µg/mL", "setting": "[2]", "result": 79, "unit": "%"}, {"measurement": "inhibition at 0.1 µg/mL", "setting": "[3]", "result": 41, "unit": "%"}, {"measurement": "inhibition at 1 µg/mL", "setting": "[3]", "result": 52, "unit": "%"}]}, {"molecule": "CCNc1cccnc1N1CCN(C(=O)c2ccc(C(=O)NCCOC)cn2)CC1", "note": "[Exam. 40, 2-[1-[3-(ethylamino)-2-pyridyl]piperazin-4-yl-carbonyl]-5-[N-(2-methoxyethyl)carbamoyl]-pyridine]", "values": [{"measurement": "inhibition at 0.01 µg/mL", "setting": "[2]", "result": 36, "unit": "%"}, {"measurement": "inhibition at 0.1 µg/mL", "setting": "[2]", "result": 57, "unit": "%"}, {"measurement": "inhibition at 1 µg/mL", "setting": "[2]", "result": 75, "unit": "%"}, {"measurement": "inhibition at 0.1 µg/mL", "setting": "[3]", "result": 52, "unit": "%"}, {"measurement": "inhibition at 1 µg/mL", "setting": "[3]", "result": 70, "unit": "%"}]}, {"molecule": "CC(C)Nc1cccnc1N1CCN(C(=O)c2ccc(C(=O)NC(C)(C)CO)cn2)CC1", "note": "[Exam. 6, 5-[N-(1,1-dimethyl-2-hydroxyethyl)carbamoyl]-2-[1-[3-(isopropylamino)-2-pyridyl]piperazin-4-yl-carbonyl]pyridine]", "values": [{"measurement": "inhibition at 0.01 µg/mL", "setting": "[2]", "result": 62, "unit": "%"}, {"measurement": "inhibition at 0.1 µg/mL", "setting": "[2]", "result": 65, "unit": "%"}, {"measurement": "inhibition at 1 µg/mL", "setting": "[2]", "result": 80, "unit": "%"}, {"measurement": "inhibition at 0.1 µg/mL", "setting": "[3]", "result": 48, "unit": "%"}, {"measurement": "inhibition at 1 µg/mL", "setting": "[3]", "result": 70, "unit": "%"}]}, {"molecule": "CC(C)Nc1cccnc1N1CCN(C(=O)c2ccc(C(=O)NCc3ccco3)cn2)CC1", "note": "[Exam. 79, N-(2-Furylmethyl)-6-[1-[3-(isopropylamino)-2-pyridyl]piperazin-4-yl-carbonyl]nicotinamide.HCl]", "values": [{"measurement": "inhibition at 0.01 µg/mL", "setting": "[2]", "result": 54, "unit": "%"}, {"measurement": "inhibition at 0.1 µg/mL", "setting": "[2]", "result": 63, "unit": "%"}, {"measurement": "inhibition at 1 µg/mL", "setting": "[2]", "result": 78, "unit": "%"}, {"measurement": "inhibition at 0.1 µg/mL", "setting": "[3]", "result": 20, "unit": "%"}, {"measurement": "inhibition at 1 µg/mL", "setting": "[3]", "result": 54, "unit": "%"}]}, {"molecule": "CC(C)CNc1cccnc1N1CCN(C(=O)c2ccc(C(=O)NC3CC3)cn2)CC1", "note": "[Exam. 36]", "values": [{"measurement": "inhibition at 0.01 µg/mL", "setting": "[2]", "result": 60, "unit": "%"}, {"measurement": "inhibition at 0.1 µg/mL", "setting": "[2]", "result": 71, "unit": "%"}, {"measurement": "inhibition at 1 µg/mL", "setting": "[2]", "result": 87, "unit": "%"}, {"measurement": "inhibition at 0.1 µg/mL", "setting": "[3]", "result": 60, "unit": "%"}, {"measurement": "inhibition at 1 µg/mL", "setting": "[3]", "result": 73, "unit": "%"}]}, {"molecule": "COCC(C)NC(=O)c1ccc(C(=O)N2CCN(c3ncccc3NC(C)C)CC2)nc1", "note": "(stereo not shown) [Exam. 43, 2-[1-[3-(isopropylamino)-2-pyridyl]piperazin-4-yl-carbonyl]-5-[N-(2-methoxy-1-methylethyl)carbamoyl]pyridine]", "values": [{"measurement": "inhibition at 0.01 µg/mL", "setting": "[2]", "result": 50, "unit": "%"}, {"measurement": "inhibition at 0.1 µg/mL", "setting": "[2]", "result": 61, "unit": "%"}, {"measurement": "inhibition at 1 µg/mL", "setting": "[2]", "result": 68, "unit": "%"}, {"measurement": "inhibition at 0.1 µg/mL", "setting": "[3]", "result": 44, "unit": "%"}, {"measurement": "inhibition at 1 µg/mL", "setting": "[3]", "result": 56, "unit": "%"}]}, {"molecule": "Nc1cccnc1N1CCN(C(=O)c2ccc(C(=O)NCc3ccccn3)cn2)CC1", "note": "[Exam. 75, 6-[1-(3-amino-2-pyridyl)piperazin-4-yl-carbonyl]-N-(2-pyridylmethyl)nicotinamide.HCl]", "values": [{"measurement": "inhibition at 0.01 µg/mL", "setting": "[2]", "result": 22, "unit": "%"}, {"measurement": "inhibition at 0.1 µg/mL", "setting": "[2]", "result": 54, "unit": "%"}, {"measurement": "inhibition at 1 µg/mL", "setting": "[2]", "result": 72, "unit": "%"}, {"measurement": "inhibition at 0.1 µg/mL", "setting": "[3]", "result": 53, "unit": "%"}, {"measurement": "inhibition at 1 µg/mL", "setting": "[3]", "result": 72, "unit": "%"}]}, {"molecule": "Cc1ncc(CO)c(CNC(=O)c2ccc(C(=O)N3CCN(c4ncccc4NC(C)C)CC3)nc2)c1O", "note": "[Exam. 78]", "values": [{"measurement": "inhibition at 0.01 µg/mL", "setting": "[2]", "result": 15, "unit": "%"}, {"measurement": "inhibition at 0.1 µg/mL", "setting": "[2]", "result": 58, "unit": "%"}, {"measurement": "inhibition at 1 µg/mL", "setting": "[2]", "result": 62, "unit": "%"}, {"measurement": "inhibition at 0.1 µg/mL", "setting": "[3]", "result": 52, "unit": "%"}, {"measurement": "inhibition at 1 µg/mL", "setting": "[3]", "result": 70, "unit": "%"}]}, {"molecule": "CC(C)Nc1cccnc1N1CCN(C(=O)c2ccc(C(=O)N(CCO)CCO)cn2)CC1", "note": "[Exam. 16, 5-[N,N-bis(2-hydroxyethyl)carbamoyl]-2-[1-[3-(isopropylamino)-2-pyridyl]piperazin-4-yl-carbonyl]pyridine]", "values": [{"measurement": "inhibition at 0.01 µg/mL", "setting": "[2]", "result": 51, "unit": "%"}, {"measurement": "inhibition at 0.1 µg/mL", "setting": "[2]", "result": 60, "unit": "%"}, {"measurement": "inhibition at 1 µg/mL", "setting": "[2]", "result": 70, "unit": "%"}, {"measurement": "inhibition at 0.1 µg/mL", "setting": "[3]", "result": 47, "unit": "%"}, {"measurement": "inhibition at 1 µg/mL", "setting": "[3]", "result": 68, "unit": "%"}]}, {"molecule": "CCNc1cccnc1N1CCN(C(=O)c2ccc(C(=O)NC(C)C)cn2)CC1", "note": "[Exam. 25, 2-[1-[3-(ethylamino)-2-pyridyl]piperazin-4-yl-carbonyl]-5-(N-isopropylcarbamoyl)pyridine]", "values": [{"measurement": "inhibition at 0.01 µg/mL", "setting": "[2]", "result": 54, "unit": "%"}, {"measurement": "inhibition at 0.1 µg/mL", "setting": "[2]", "result": 67, "unit": "%"}, {"measurement": "inhibition at 1 µg/mL", "setting": "[2]", "result": 85, "unit": "%"}, {"measurement": "inhibition at 0.1 µg/mL", "setting": "[3]", "result": 52, "unit": "%"}, {"measurement": "inhibition at 1 µg/mL", "setting": "[3]", "result": 75, "unit": "%"}]}, {"molecule": "Nc1ccn([C@@H]2CS[C@H](CO)O2)c(=O)n1", "note": "[Lamivudine]", "values": [{"measurement": "suppressing the proliferation of HBV", "setting": "[1]", "result": "effective in suppressing the proliferation of HBV"}]}, {"molecule": "COCCCNC(=O)c1ccc(C(=O)N2CCN(c3ncccc3NCC(C)C)CC2)nc1", "note": "[Exam. 47, 2-[1-[3-(isobutylamino)-2-pyridyl]piperazin-4-yl-carbonyl]-5-[N-(3-methoxypropyl)carbamoyl]pyridine]", "values": [{"measurement": "inhibition at 0.01 µg/mL", "setting": "[2]", "result": 20, "unit": "%"}, {"measurement": "inhibition at 0.1 µg/mL", "setting": "[2]", "result": 51, "unit": "%"}, {"measurement": "inhibition at 1 µg/mL", "setting": "[2]", "result": 72, "unit": "%"}, {"measurement": "inhibition at 0.1 µg/mL", "setting": "[3]", "result": 53, "unit": "%"}, {"measurement": "inhibition at 1 µg/mL", "setting": "[3]", "result": 69, "unit": "%"}]}, {"molecule": "CCN(CC)C(=O)c1ccc(C(=O)N2CCN(c3ncccc3NC(C)C)CC2)nc1", "note": "[Exam. 33, 5-(N,N-diethylcarbamoyl)-2-[1-[3-(isopropylamino)-2-pyridyl]piperazin-4-yl-carbonyl]pyridine]", "values": [{"measurement": "inhibition at 0.01 µg/mL", "setting": "[2]", "result": 20, "unit": "%"}, {"measurement": "inhibition at 0.1 µg/mL", "setting": "[2]", "result": 62, "unit": "%"}, {"measurement": "inhibition at 1 µg/mL", "setting": "[2]", "result": 73, "unit": "%"}, {"measurement": "inhibition at 0.1 µg/mL", "setting": "[3]", "result": 64, "unit": "%"}, {"measurement": "inhibition at 1 µg/mL", "setting": "[3]", "result": 80, "unit": "%"}]}, {"molecule": "O=C(NCCN1CCOCC1)c1ccc(C(=O)N2CCN(CCO)CC2)nc1", "note": "[Exam. 102, 6-[1-(2-hydroxyethyl)piperazin-4-yl-carbonyl]-N-[2-(morpholin-4-yl)-ethyl]nicotinamide.HCl]", "values": [{"measurement": "inhibition at 0.01 µg/mL", "setting": "[2]", "result": 32, "unit": "%"}, {"measurement": "inhibition at 0.1 µg/mL", "setting": "[2]", "result": 56, "unit": "%"}, {"measurement": "inhibition at 1 µg/mL", "setting": "[2]", "result": 70, "unit": "%"}, {"measurement": "inhibition at 0.1 µg/mL", "setting": "[3]", "result": 25, "unit": "%"}, {"measurement": "inhibition at 1 µg/mL", "setting": "[3]", "result": 40, "unit": "%"}]}]}
